According to ChEMBL document CHEMBL3046635, “Synthesis and Herbicidal Activity of New Pyrazole-4-carboxamide Derivatives” (J Pestic Sci, 2004):
Activity calls are given as the source filed them.

Assays:
Echinochloa oryzicola [1] = experiment: Post-emergence herbicidal activity against Echinochloa oryzicola assessed as bleaching of stem/leaf parts; assay type: functional, organism-based; note: test concentration or dose not given here
Elatine triandra [2] = experiment: Pre-emergence herbicidal activity against Elatine triandra at 500 g a.i/ha measured after 14 days; assay type: functional, organism-based
Rotala indica [3] = experiment: Post-emergence herbicidal activity against Rotala indica assessed as bleaching of stem/leaf parts; assay type: functional, organism-based; note: test concentration or dose not given here
Cyperus difformis [4] = experiment: Post-emergence herbicidal activity against Cyperus difformis assessed as bleaching of stem/leaf parts; assay type: functional, organism-based; note: test concentration or dose not given here
Echinochloa oryzicola [5] = experiment: Pre-emergence herbicidal activity against Echinochloa oryzicola assessed as bleaching of stem/leaf parts; assay type: functional, organism-based
Ammannia multiflora [6] = experiment: Pre-emergence herbicidal activity against Ammannia multiflora at 500 g a.i/ha measured after 14 days; assay type: functional, organism-based
Rotala indica [7] = experiment: Pre-emergence herbicidal activity against Rotala indica assessed as bleaching of stem/leaf parts; assay type: functional, organism-based
Lindernia procumbens [8] = experiment: Pre-emergence herbicidal activity against Lindernia procumbens assessed as bleaching of stem/leaf parts; assay type: functional, organism-based
Eleocharis acicularis [9] = experiment: Pre-emergence herbicidal activity against Eleocharis acicularis at 500 g a.i/ha measured after 14 days; assay type: functional, organism-based
Ammannia multiflora [10] = experiment: Pre-emergence herbicidal activity against Ammannia multiflora assessed as bleaching of stem/leaf parts; assay type: functional, organism-based
Oryza sativa = experiment: Phytotoxicity against Oryza sativa cv. Koshihikari (rice) at 500 g a.i/ha measured after 14 days; assay type: organism-based; conditions: in vivo, 336 h
Cyperus difformis [11] = experiment: Pre-emergence herbicidal activity against Cyperus difformis assessed as bleaching of stem/leaf parts; assay type: functional, organism-based
Lindernia procumbens [12] = experiment: Pre-emergence herbicidal activity against Lindernia procumbens at 500 g a.i/ha measured after 14 days; assay type: functional, organism-based
Echinochloa oryzicola [13] = experiment: Pre-emergence herbicidal activity against Echinochloa oryzicola at 500 g a.i/ha measured after 14 days; assay type: functional, organism-based
Pontederia vaginalis [14] = experiment: Pre-emergence herbicidal activity against Monochoria vaginalis at 500 g a.i/ha measured after 14 days; assay type: functional, organism-based
Elatine triandra [15] = experiment: Post-emergence herbicidal activity against Elatine triandra assessed as bleaching of stem/leaf parts; assay type: functional, organism-based; note: test concentration or dose not given here
Rotala indica [16] = experiment: Pre-emergence herbicidal activity against Rotala indica at 500 g a.i/ha measured after 14 days; assay type: functional, organism-based
Cyperus difformis [17] = experiment: Pre-emergence herbicidal activity against Cyperus difformis at 500 g a.i/ha measured after 14 days; assay type: functional, organism-based
Pontederia vaginalis [18] = experiment: Pre-emergence herbicidal activity against Monochoria vaginalis assessed as bleaching of stem/leaf parts; assay type: functional, organism-based
Lindernia procumbens [19] = experiment: Post-emergence herbicidal activity against Lindernia procumbens assessed as bleaching of stem/leaf parts; assay type: functional, organism-based; note: test concentration or dose not given here
[20] = system: Schoenoplectiella juncoides; experiment: Post-emergence herbicidal activity against Schoenoplectiella juncoides assessed as bleaching of stem/leaf parts; assay type: functional, organism-based; note: test concentration or dose not given here
[21] = system: Schoenoplectiella juncoides; experiment: Pre-emergence herbicidal activity against Schoenoplectiella juncoides at 500 g a.i/ha measured after 14 days; assay type: functional, organism-based
Ammannia multiflora [22] = experiment: Post-emergence herbicidal activity against Ammannia multiflora assessed as bleaching of stem/leaf parts; assay type: functional, organism-based; note: test concentration or dose not given here
Elatine triandra [23] = experiment: Pre-emergence herbicidal activity against Elatine triandra assessed as bleaching of stem/leaf parts; assay type: functional, organism-based
[24] = system: Schoenoplectiella juncoides; experiment: Pre-emergence herbicidal activity against Schoenoplectiella juncoides assessed as bleaching of stem/leaf parts; assay type: functional, organism-based
Eleocharis acicularis [25] = experiment: Post-emergence herbicidal activity against Eleocharis acicularis assessed as bleaching of stem/leaf parts; assay type: functional, organism-based; note: test concentration or dose not given here
Eleocharis acicularis [26] = experiment: Pre-emergence herbicidal activity against Eleocharis acicularis assessed as bleaching of stem/leaf parts; assay type: functional, organism-based
Pontederia vaginalis [27] = experiment: Post-emergence herbicidal activity against Monochoria vaginalis assessed as bleaching of stem/leaf parts; assay type: functional, organism-based; note: test concentration or dose not given here

Row | Structure (SMILES) | Activity (Echinochloa oryzicola [1]) | Activity (Elatine triandra [2]) | Activity (Rotala indica [3]) | Activity (Cyperus difformis [4]) | Activity (Echinochloa oryzicola [5]) | Activity (Ammannia multiflora [6]) | Activity (Rotala indica [7]) | Activity (Lindernia procumbens [8]) | Activity (Eleocharis acicularis [9]) | Activity (Ammannia multiflora [10]) | Activity (Oryza sativa) | Activity (Cyperus difformis [11]) | Activity (Lindernia procumbens [12]) | Activity (Echinochloa oryzicola [13]) | Activity (Pontederia vaginalis [14]) | Activity (Elatine triandra [15]) | Activity (Rotala indica [16]) | Activity (Cyperus difformis [17]) | Activity (Pontederia vaginalis [18]) | Activity (Lindernia procumbens [19]) | other results
1 | Cn1cc(C(=O)NCc2cccc(Cl)c2)c(OCc2cccc(C(F)(F)F)c2)n1 | Active | inactive | Active | Active | Active | inactive | Active | Active | inactive | Active | Non-toxic | Active | inactive | inactive | inactive | Active | inactive | inactive | Active | Active | Activity [20]: Active; Activity [21]: inactive; Activity (Ammannia multiflora [22]): Active; Activity (Elatine triandra [23]): Active; Activity [24]: Active; Activity (Eleocharis acicularis [25]): Active; Activity (Eleocharis acicularis [26]): Active; Activity (Pontederia vaginalis [27]): Active
2 | Cn1cc(C(=O)N2CCCC2)c(OCc2cccc(C(F)(F)F)c2)n1 | Active | inactive | Active | Active | Active | inactive | Active | Active | inactive | Active | Non-toxic | Active | inactive | inactive | inactive | Active | inactive | inactive | Active | Active | Activity [20]: Active; Activity [21]: inactive; Activity (Ammannia multiflora [22]): Active; Activity (Elatine triandra [23]): Active; Activity [24]: Active; Activity (Eleocharis acicularis [25]): Active; Activity (Eleocharis acicularis [26]): Active; Activity (Pontederia vaginalis [27]): Active
3 | Cn1nc(OCc2cccc(C(F)(F)F)c2)c(C(=O)NOc2ccc(F)cc2F)c1Cl | Active | inactive | Active | Active | Active | inactive | Active | Active | inactive | Active | Non-toxic | Active | inactive | inactive | inactive | Active | inactive | inactive | Active | Active | Activity [20]: Active; Activity [21]: inactive; Activity (Ammannia multiflora [22]): Active; Activity (Elatine triandra [23]): Active; Activity [24]: Active; Activity (Eleocharis acicularis [25]): Active; Activity (Eleocharis acicularis [26]): Active; Activity (Pontederia vaginalis [27]): Active
4 | Cc1c(C(=O)NOc2ccc(F)cc2F)c(OCc2cccc(C(F)(F)F)c2)nn1C | Active | inactive | Active | Active | Active | inactive | Active | Active | inactive | Active | Non-toxic | Active | inactive | inactive | inactive | Active | inactive | inactive | Active | Active | Activity [20]: Active; Activity [21]: Active; Activity (Ammannia multiflora [22]): Active; Activity (Elatine triandra [23]): Active; Activity [24]: Active; Activity (Eleocharis acicularis [25]): Active; Activity (Eleocharis acicularis [26]): Active; Activity (Pontederia vaginalis [27]): Active
5 | Cn1cc(C(=O)Nc2ccc(C(F)(F)F)cc2)c(OCc2cccc(C(F)(F)F)c2)n1 | Active | Active | Active | Active | Active | Active | Active | Active | Active | Active | Non-toxic | Active | Active | inactive | Active | Active | Active | inactive | Active | Active | Activity [20]: Active; Activity [21]: inactive; Activity (Ammannia multiflora [22]): Active; Activity (Elatine triandra [23]): Active; Activity [24]: Active; Activity (Eleocharis acicularis [25]): Active; Activity (Eleocharis acicularis [26]): Active; Activity (Pontederia vaginalis [27]): Active
6 | Cn1cc(C(=O)Nc2ccc(C#N)cc2)c(OCc2cccc(C(F)(F)F)c2)n1 | Active | Active | Active | Active | Active | Active | Active | Active | inactive | Active | Non-toxic | Active | Active | inactive | inactive | Active | Active | inactive | Active | Active | Activity [20]: Active; Activity [21]: inactive; Activity (Ammannia multiflora [22]): Active; Activity (Elatine triandra [23]): Active; Activity [24]: Active; Activity (Eleocharis acicularis [25]): Active; Activity (Eleocharis acicularis [26]): Active; Activity (Pontederia vaginalis [27]): Active
